Activity calls are given as the source filed them. No cut-off for these calls is given here.
Tests used:
[1] = target: Protein-tyrosine kinase 2-beta (Homo sapiens) (UniProt Q14289); assay: Inhibition of recombinant human full length GST-tagged PTK2B expressed in insect cells at 2 uM using Tyr 01 as substrate measured after 1 hr by Z'-LYTE assay relative to control; settings: Insect cell
[2] = target: Tyrosine-protein kinase Lyn (Homo sapiens) (UniProt P07948); assay: Inhibition of recombinant human full length GST-tagged LYN A expressed in baculovirus expression system at 2 uM using Tyr 02 as substrate measured after 1 hr by Z'-LYTE assay relative to control
Chain of Tyrosine-protein kinase Lyn (Homo sapiens) (P07948 2-512 limits assumed): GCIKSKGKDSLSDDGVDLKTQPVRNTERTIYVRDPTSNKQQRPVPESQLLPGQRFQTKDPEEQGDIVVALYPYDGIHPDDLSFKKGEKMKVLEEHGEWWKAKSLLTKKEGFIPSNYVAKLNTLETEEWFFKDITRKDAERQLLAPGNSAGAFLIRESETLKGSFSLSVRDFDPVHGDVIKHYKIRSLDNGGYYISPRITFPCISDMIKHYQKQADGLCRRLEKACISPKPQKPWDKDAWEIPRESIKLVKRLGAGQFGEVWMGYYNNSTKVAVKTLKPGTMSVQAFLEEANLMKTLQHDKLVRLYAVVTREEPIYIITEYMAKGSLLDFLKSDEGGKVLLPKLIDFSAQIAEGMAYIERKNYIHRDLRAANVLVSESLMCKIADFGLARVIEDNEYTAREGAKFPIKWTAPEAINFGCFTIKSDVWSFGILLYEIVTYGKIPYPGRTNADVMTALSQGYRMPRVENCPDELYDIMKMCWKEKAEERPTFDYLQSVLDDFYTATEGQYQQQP

mTORC2 (Homo sapiens) [3] = target: T1, mTORC2 (Homo sapiens) (UniProt P42345+Q6R327+Q9BVC4+Q9BPZ7); settings: U-87 MG, dose 0.025-2 µmol/L, time 6.0 hrs
786-0 = assay: Antitumor activity against VHL null-human 786-0 cells xenografted in female nude mouse model assessed as suppression in tumor growth at 25 mg/kg, po qd administered as 5 days on/2 days off regimen for 4 cycles relative to control; assay type: functional; settings: time 28 day
[4] = target: Macrophage colony-stimulating factor 1 receptor (Homo sapiens) (UniProt P07333); assay: Inhibition of recombinant human His-tagged CSF1R (538-910 residues) expressed in baculovirus expression system at 2 uM using Tyr 01 as substrate measured after 1 hr by Z'-LYTE assay relative to control
Chain of Macrophage colony-stimulating factor 1 receptor (Homo sapiens) (P07333 whole entry, the tested form may be a part): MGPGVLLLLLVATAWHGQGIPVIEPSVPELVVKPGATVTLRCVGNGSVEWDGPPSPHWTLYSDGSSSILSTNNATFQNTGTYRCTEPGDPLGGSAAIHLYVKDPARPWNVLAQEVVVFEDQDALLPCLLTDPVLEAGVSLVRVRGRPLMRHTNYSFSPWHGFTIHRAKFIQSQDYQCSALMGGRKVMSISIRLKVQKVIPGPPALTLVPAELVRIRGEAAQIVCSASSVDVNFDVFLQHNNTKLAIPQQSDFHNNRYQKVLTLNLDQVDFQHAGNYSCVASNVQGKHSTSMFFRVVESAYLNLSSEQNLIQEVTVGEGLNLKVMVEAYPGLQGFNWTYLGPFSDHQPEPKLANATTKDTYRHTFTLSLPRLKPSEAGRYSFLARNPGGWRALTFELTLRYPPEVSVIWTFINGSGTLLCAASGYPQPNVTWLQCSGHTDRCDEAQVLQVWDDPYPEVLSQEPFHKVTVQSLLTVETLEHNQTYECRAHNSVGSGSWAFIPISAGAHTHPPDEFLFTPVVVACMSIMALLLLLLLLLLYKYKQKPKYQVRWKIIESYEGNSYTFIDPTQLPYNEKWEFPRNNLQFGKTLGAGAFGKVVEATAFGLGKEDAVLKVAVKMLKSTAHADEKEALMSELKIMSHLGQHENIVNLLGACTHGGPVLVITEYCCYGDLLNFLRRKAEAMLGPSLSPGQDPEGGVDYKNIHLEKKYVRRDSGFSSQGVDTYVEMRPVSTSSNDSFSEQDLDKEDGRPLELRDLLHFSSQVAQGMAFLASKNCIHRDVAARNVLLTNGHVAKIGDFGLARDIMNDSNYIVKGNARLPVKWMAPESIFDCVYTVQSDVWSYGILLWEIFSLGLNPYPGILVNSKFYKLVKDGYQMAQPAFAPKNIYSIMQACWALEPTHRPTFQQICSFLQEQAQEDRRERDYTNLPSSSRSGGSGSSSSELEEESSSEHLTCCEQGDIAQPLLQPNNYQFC

[5] = target: Tyrosine-protein kinase JAK1 (Homo sapiens) (UniProt P23458); assay: Inhibition of recombinant human GST-tagged JAK1 (866-1154 residues) expressed in insect cells at 2 uM using Tyr 06 as substrate measured after 1 hr by Z'-LYTE assay relative to control; settings: Insect cell
[6] = target: Casein kinase I isoform gamma-3 (Homo sapiens) (UniProt Q9Y6M4); assay: Inhibition of recombinant human full-length GST-tagged CSNK1G3 expressed in insect cells at 2 uM using Ser/Thr 05 as substrate measured after 1 hr by Z'-LYTE assay relative to control; settings: Insect cell
[7] = target: Serine/threonine-protein kinase Sgk1 (Homo sapiens) (UniProt O00141); assay: Inhibition of recombinant human GST-tagged SGK (60-431 residues) expressed in insect cells at 2 uM using Ser/Thr 06 as substrate measured after 1 hr by Z'-LYTE assay relative to control; settings: Insect cell
[8] = target: Phosphatidylinositol 4,5-bisphosphate 3-kinase catalytic subunit gamma isoform (Homo sapiens, UniProt P48736); assay: Inhibition of PI3Kgamma (unknown origin) using PIP2 as substrate measured after 15 to 30 mins by fluorescence polarization assay
Chain of Phosphatidylinositol 4,5-bisphosphate 3-kinase catalytic subunit gamma isoform (P48736 whole entry, canonical isoform): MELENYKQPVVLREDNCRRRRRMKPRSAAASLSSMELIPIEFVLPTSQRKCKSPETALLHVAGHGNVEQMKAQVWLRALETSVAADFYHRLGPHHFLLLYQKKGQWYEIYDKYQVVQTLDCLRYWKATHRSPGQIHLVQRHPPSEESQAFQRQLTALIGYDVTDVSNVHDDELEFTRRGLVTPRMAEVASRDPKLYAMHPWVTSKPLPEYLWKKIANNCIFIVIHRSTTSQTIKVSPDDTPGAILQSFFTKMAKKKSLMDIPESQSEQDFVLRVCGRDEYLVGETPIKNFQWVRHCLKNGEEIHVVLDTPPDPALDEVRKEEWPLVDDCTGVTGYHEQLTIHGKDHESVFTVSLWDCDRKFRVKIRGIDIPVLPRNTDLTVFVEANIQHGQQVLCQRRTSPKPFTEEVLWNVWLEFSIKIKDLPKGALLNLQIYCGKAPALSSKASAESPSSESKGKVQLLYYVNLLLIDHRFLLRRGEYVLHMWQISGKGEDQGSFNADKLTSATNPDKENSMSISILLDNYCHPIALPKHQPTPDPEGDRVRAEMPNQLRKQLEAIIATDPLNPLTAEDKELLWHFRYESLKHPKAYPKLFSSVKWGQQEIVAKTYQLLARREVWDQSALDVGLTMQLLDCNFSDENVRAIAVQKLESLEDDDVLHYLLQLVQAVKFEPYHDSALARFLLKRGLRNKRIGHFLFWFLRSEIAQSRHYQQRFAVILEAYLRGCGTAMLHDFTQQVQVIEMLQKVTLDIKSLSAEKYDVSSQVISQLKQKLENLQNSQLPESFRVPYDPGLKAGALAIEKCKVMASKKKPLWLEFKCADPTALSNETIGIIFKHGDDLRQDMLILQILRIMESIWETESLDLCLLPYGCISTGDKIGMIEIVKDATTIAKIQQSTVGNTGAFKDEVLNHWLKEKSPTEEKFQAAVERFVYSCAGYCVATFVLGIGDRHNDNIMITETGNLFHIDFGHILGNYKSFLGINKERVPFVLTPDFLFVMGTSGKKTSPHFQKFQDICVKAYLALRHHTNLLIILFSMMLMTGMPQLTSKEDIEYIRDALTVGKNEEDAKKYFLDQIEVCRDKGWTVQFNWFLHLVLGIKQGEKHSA

[9] = target: Serine/threonine-protein kinase Nek6 (Homo sapiens) (UniProt Q9HC98); assay: Inhibition of recombinant human full length GST-tagged NEK6 expressed in insect cells at 2 uM using Ser/Thr 22 as substrate measured after 1 hr by Z'-LYTE assay relative to control; settings: Insect cell
Chain of Serine/threonine-protein kinase Nek6 (Homo sapiens) (Q9HC98 whole entry): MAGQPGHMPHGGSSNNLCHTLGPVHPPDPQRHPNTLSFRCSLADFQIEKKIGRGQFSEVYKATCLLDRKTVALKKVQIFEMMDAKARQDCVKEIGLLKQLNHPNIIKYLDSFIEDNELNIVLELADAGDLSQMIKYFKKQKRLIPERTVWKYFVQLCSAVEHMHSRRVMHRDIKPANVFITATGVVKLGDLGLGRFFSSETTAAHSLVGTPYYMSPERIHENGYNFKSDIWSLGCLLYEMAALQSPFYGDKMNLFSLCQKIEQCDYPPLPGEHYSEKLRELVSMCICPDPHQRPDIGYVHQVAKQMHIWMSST

[10] = target: Protein kinase C beta type (Homo sapiens) (UniProt P05771); assay: Inhibition of recombinant human full length GST-tagged PRKCB2 expressed in insect cells at 2 uM using Ser/Thr 07 as substrate measured after 1 hr by Z'-LYTE assay relative to control; settings: Insect cell
[11] = target: Serine/threonine-protein kinase Chk2 (Homo sapiens) (UniProt O96017); assay: Inhibition of recombinant human full-length His-tagged CHEK2 expressed in baculovirus expression system at 2 uM using Ser/Thr 07 as substrate measured after 1 hr by Z'-LYTE assay relative to control
mTORC2 (Homo sapiens) [12] = target: T1, mTORC2 (Homo sapiens); settings: PC3MM2, dose 0.1-1 µM, time 6.0 hrs
MDA-MB-361 [13] = assay: Induction of apoptosis in human MDA-MB-361 cells assessed as induction in cell death at 10 nmol/L incubated for 48 hrs by FACS analysis relative to control; assay type: functional
[14] = target: Casein kinase I isoform epsilon (Homo sapiens) (UniProt P49674); assay: Inhibition of recombinant human full-length His-tagged CSNK1E expressed in insect cells at 2 uM using Ser/Thr 11 as substrate measured after 1 hr by Z'-LYTE assay relative to control; settings: Insect cell
A498 = assay: Antiproliferative activity against human A498 cells assessed as cell growth inhibition incubated for 24 hrs by MTS assay; assay type: functional, cell-based; settings: A498, 24 h
mTORC2 (Homo sapiens) [15] = target: T1, mTORC2 (Homo sapiens); settings: U-87 MG, dose 0.025-2 µmol/L, time 6.0 hrs; remark: listed apart in the source
U-87 MG = assay: Induction of apoptosis in human U-87MG cells assessed as increase in G1 phase at 1 micromol/L incubated for 24 hrs by FACS analysis; assay type: functional, cell-based; settings: U-87MG ATCC, dose 1.0 µmol/L
mTORC2 (Homo sapiens) [16] = target: T1, mTORC2 (Homo sapiens); settings: U-87 MG, dose 0.025-2 µmol/L, time 6.0 hrs; remark: listed apart in the source
[17] = target: SRSF protein kinase 3 (Homo sapiens) (UniProt Q9UPE1); assay: Inhibition of recombinant human full length GST-tagged STK23 expressed in baculovirus expression system at 2 uM using Ser/Thr 18 as substrate measured after 1 hr by Z'-LYTE assay relative to control
HeLa = assay: Antiproliferative activity against human HeLa cells assessed as cell growth inhibition incubated for 24 hrs by MTS assay; assay type: functional, cell-based
[18] = target: Ephrin type-B receptor 1 (Homo sapiens) (UniProt P54762); assay: Inhibition of recombinant human GST-tagged EPHB1 (613-881 residues) expressed in insect cells at 2 uM using Tyr 02 as substrate measured after 1 hr by Z'-LYTE assay relative to control; settings: Insect cell
Chain of Ephrin type-B receptor 1 (Homo sapiens) (P54762 whole entry, the tested form may be a part): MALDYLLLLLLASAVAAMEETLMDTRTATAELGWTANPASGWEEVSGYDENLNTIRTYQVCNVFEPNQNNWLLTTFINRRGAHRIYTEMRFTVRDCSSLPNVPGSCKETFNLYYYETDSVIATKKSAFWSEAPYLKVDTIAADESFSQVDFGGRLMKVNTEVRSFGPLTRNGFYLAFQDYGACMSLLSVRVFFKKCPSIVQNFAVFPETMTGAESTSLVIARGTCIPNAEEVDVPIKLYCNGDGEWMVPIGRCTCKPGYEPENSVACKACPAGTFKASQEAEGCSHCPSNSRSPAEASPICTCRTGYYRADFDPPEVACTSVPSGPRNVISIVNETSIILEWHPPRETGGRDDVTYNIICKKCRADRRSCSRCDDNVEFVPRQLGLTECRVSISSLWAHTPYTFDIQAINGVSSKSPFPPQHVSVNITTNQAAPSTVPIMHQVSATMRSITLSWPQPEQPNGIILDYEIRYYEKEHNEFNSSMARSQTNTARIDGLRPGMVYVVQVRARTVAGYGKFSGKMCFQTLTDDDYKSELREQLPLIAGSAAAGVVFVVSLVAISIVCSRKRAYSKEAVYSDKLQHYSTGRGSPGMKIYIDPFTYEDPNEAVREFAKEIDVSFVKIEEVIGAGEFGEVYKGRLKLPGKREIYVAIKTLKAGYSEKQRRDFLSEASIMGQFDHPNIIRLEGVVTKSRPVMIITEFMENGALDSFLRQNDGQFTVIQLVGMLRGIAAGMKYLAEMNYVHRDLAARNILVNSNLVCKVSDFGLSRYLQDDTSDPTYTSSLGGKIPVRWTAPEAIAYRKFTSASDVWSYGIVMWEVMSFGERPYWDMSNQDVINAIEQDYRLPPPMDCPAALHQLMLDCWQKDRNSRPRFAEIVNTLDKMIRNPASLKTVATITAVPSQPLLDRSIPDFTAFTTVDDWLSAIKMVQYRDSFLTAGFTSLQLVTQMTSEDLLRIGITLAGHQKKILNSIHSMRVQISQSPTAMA

[19] = target: Fibroblast growth factor receptor 1 (Homo sapiens) (UniProt P11362); assay: Inhibition of recombinant human His-tagged FGFR1 (308-731 residues) expressed in baculovirus expression system at 2 uM using Tyr 04 as substrate measured after 1 hr by Z'-LYTE assay relative to control
Chain of Fibroblast growth factor receptor 1 (Homo sapiens) (P11362 22-822 limits assumed): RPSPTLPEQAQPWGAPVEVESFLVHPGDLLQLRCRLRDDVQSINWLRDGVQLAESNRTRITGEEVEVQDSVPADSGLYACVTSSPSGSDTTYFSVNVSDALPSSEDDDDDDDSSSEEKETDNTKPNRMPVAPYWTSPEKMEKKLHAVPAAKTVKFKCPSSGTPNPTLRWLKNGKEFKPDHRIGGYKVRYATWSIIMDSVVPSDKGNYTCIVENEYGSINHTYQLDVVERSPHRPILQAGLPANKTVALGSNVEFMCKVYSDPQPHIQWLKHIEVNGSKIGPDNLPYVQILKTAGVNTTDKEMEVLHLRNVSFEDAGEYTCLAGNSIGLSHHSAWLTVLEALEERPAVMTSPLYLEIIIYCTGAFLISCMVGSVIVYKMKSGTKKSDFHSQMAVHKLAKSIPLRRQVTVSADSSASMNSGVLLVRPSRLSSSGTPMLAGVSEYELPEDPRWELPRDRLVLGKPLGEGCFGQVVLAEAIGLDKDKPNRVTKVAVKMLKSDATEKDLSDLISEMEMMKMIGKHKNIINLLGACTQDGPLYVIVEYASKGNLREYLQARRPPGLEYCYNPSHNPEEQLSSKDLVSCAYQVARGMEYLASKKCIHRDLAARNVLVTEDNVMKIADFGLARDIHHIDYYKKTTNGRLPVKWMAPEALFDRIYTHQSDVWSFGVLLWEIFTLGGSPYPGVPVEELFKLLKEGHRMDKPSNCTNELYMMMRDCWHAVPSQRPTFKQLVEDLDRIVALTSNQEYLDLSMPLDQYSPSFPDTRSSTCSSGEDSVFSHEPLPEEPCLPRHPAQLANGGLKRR

[20] = target: Dual specificity protein kinase CLK2 (Homo sapiens) (UniProt P49760); assay: Inhibition of recombinant human GST-tagged CLK2 (137-498 residues) expressed in insect cells at 2 uM using Ser/Thr 06 as substrate measured after 1 hr by Z'-LYTE assay relative to control; settings: Insect cell
MDA-MB-361 [21] = assay: Inhibition of protein synthesis in human MDA-MB-361 cells at 3 micromol/L incubated for 3 hrs by [3H] methionine incorporation based scintillation counter analysis relative to control; assay type: functional; settings: MDA-MB-361, 3 h, dose 3 µmol/L
MDA-MB-361 [22] = assay: Induction of apoptosis in human MDA-MB-361 cells assessed as induction in cell death at 30 nmol/L incubated for 48 hrs by FACS analysis relative to control; assay type: functional
[23] = target: Serine/threonine-protein kinase MARK2 (Homo sapiens) (UniProt Q7KZI7); assay: Inhibition of recombinant human full length GST-tagged MARK2 expressed in insect cells at 2 uM using Ser/Thr 21 as substrate measured after 1 hr by Z'-LYTE assay relative to control; settings: Insect cell

Question: How did the inhibition [1] turn out when `CNC(=O)Nc1ccc(-c2nc(N3CC4CCC(C3)O4)c3cnn(C4CCC5(CC4)OCCO5)c3n2)cc1` was run?
Answer: -3%

Question: What about the inhibition [2] of the same compound?
Answer: 7%

Question: What about the inhibition (mTORC2 (Homo sapiens) [3]) of the same compound?
Answer: inactive

Question: And the Activity (786-0)?
Answer: 100%

Question: And the inhibition [4]?
Answer: 7%

Question: And the inhibition [5]?
Answer: 5%

Question: And the inhibition [6]?
Answer: -1%

Question: And the inhibition [7]?
Answer: -2%

Question: What about the IC50 [8] of the same compound?
Answer: > 10000 nM

Question: And the inhibition [9]?
Answer: 12%

Question: What about the inhibition [10] of the same compound?
Answer: 9%

Question: And the inhibition [11]?
Answer: 3%

Question: What about the inhibition (mTORC2 (Homo sapiens) [12]) of the same compound?
Answer: Active

Question: And the Activity (MDA-MB-361 [13])?
Answer: 6.2%

Question: What about the inhibition [14] of the same compound?
Answer: 4%

Question: And the IC50 (A498)?
Answer: 110 nM

Question: And the inhibition (mTORC2 (Homo sapiens) [15])?
Answer: Active

Question: And the Activity (U-87 MG)?
Answer: Active

Question: And the inhibition (mTORC2 (Homo sapiens) [16])?
Answer: Active

Question: What about the inhibition [17] of the same compound?
Answer: 6%

Question: And the IC50 (HeLa)?
Answer: 55 nM

Question: And the inhibition [18]?
Answer: 2%

Question: What about the inhibition [19] of the same compound?
Answer: 4%

Question: And the inhibition [20]?
Answer: 0%

Question: And the inhibition at 3 µM (MDA-MB-361 [21])?
Answer: ~50%

Question: What about the Activity (MDA-MB-361 [22]) of the same compound?
Answer: 13%

Question: What about the inhibition [23] of the same compound?
Answer: 12%
